Reference: ChEMBL document CHEMBL5465560, “Selectivity Literature for EUbOPEN Chemogenomic Library” (2024)
One block for each compound: values may come before it.

Columns and labels:
[1] = target: Ribosomal protein S6 kinase alpha-2 (Homo sapiens) (UniProt Q15349); conditions: at 10 µM
[2] = target: Calcium/calmodulin-dependent protein kinase kinase 2 (Homo sapiens) (UniProt Q96RR4); experiment: Selectivity interaction (Kinase panel (literature)) EUB0001199aCl CAMKK2; conditions: at 1 µM
[3] = target: T1, Dual specificity mitogen-activated protein kinase kinase 7 (Homo sapiens) (UniProt O14733); experiment: Selectivity interaction (KinomeScan (DiscoverX)) EUB0000655a MAP2K7; conditions: at 10 µM
T1 sequence (whole entry): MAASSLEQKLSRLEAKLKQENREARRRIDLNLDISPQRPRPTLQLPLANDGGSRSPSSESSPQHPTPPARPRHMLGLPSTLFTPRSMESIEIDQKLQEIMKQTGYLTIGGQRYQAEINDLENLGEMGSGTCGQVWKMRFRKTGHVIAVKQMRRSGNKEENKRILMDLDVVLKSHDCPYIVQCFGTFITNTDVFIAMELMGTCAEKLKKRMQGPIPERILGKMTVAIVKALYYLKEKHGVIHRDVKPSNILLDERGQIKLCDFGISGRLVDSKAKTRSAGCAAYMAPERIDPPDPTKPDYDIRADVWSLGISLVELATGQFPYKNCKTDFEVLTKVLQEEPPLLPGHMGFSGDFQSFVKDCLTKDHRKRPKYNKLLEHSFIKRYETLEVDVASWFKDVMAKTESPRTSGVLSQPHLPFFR

[4] = target: NT-3 growth factor receptor (Homo sapiens, UniProt Q16288); experiment: Selectivity interaction (KinomeScan (DiscoverX)) EUB0000045b NTRK3
[5] = target: Mitogen-activated protein kinase 8 (Homo sapiens, UniProt P45983); experiment: Selectivity interaction (KinomeScan (DiscoverX)) EUB0000595a MAPK8; conditions: at 10 µM
[6] = target: cAMP-dependent protein kinase catalytic subunit beta (Homo sapiens) (UniProt P22694); conditions: at 10 µM
[7] = target: T2, Calcium/calmodulin-dependent protein kinase type IV (Homo sapiens) (UniProt Q16566); experiment: Selectivity interaction (Kinase panel (KiNativ target engagement assay in Jurkat cells)) EUB0001635a CAMK4; type: cell-based; conditions: Selectivity number of off-targets 0.0, Selectivity number of targets 233.0, Source Knowledge https://www.sciencedirect.com/science/article/pii/S2451945619300674?via%3Dihub, at 1 µM
T2 sequence (whole entry): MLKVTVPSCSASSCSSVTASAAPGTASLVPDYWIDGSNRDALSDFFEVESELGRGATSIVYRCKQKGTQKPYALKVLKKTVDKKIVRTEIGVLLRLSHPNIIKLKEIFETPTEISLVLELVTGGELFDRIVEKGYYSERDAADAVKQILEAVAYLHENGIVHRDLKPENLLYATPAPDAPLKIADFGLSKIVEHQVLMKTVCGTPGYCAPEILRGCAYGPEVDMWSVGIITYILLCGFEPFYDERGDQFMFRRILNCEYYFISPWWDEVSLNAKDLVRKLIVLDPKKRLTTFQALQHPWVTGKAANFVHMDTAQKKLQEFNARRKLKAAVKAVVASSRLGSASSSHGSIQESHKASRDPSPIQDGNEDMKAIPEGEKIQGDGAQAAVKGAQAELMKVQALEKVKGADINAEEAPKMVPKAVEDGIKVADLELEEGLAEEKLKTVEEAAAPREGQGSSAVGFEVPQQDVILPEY

[8] = target: T3, Inhibitor of nuclear factor kappa-B kinase subunit beta (Homo sapiens) (UniProt O14920); experiment: Selectivity interaction (ActivX KiNativ screen (kinase selectivity in THP-1 cell lysates)) EUB0000639a IKBKB; type: subcellular; conditions: lysate, at 0.01 µM
T3 sequence (whole entry): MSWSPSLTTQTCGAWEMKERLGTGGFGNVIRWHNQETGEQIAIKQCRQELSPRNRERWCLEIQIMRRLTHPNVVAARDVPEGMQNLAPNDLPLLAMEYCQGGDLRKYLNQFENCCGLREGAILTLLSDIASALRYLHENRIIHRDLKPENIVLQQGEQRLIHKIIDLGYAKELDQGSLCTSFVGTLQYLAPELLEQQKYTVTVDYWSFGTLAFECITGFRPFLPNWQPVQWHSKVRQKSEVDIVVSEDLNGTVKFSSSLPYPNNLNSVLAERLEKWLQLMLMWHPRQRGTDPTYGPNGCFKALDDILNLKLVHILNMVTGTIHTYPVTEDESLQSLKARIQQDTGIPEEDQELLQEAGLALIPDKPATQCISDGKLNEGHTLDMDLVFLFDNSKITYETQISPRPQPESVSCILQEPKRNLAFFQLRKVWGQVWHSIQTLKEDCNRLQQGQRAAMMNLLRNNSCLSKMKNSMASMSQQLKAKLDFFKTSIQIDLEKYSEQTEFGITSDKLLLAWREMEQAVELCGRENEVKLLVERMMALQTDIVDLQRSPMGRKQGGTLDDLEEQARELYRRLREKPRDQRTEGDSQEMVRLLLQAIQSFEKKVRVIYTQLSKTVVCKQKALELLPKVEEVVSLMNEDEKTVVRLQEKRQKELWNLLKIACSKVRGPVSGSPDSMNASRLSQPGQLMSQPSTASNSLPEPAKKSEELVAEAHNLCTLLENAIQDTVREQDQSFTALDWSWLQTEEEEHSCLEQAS

[9] = target: Tyrosine-protein kinase Fer (Homo sapiens) (UniProt P16591); experiment: Selectivity interaction (Kinase panel (Invitrogen)) EUB0000639a FER; conditions: at 200 nM
[10] = target: Serine/threonine-protein kinase mTOR (Homo sapiens, UniProt P42345); experiment: Selectivity interaction (Kinase panel (Invitrogen)) EUB0000639a MTOR; conditions: at 200 nM
[11] = target: Dual specificity tyrosine-phosphorylation-regulated kinase 1A (Homo sapiens, UniProt Q13627); experiment: Selectivity interaction (KinomeScan (DiscoverX)) EUB0000229b DYRK1A; conditions: at 10 µM
[12] = target: T4, Interleukin-1 receptor-associated kinase 4 (Homo sapiens) (UniProt Q9NWZ3); experiment: Selectivity interaction (KinomeScan (DiscoverX)) EUB0000666a IRAK4; conditions: at 10 µM
T4 sequence (whole entry): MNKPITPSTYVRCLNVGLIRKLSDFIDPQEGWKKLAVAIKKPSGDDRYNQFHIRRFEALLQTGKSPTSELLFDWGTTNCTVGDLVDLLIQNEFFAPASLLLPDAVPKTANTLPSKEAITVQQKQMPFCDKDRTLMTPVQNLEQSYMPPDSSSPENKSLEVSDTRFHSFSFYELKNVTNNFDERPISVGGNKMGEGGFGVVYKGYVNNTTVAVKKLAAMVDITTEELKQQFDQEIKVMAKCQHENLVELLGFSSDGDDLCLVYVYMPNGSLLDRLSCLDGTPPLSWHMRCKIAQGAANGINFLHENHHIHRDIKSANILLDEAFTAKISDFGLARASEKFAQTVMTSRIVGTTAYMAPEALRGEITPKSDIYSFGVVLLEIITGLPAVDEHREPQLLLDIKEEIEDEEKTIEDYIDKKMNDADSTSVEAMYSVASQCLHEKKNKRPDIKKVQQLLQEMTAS

Sequence of NT-3 growth factor receptor (Q16288 32-839 limits assumed): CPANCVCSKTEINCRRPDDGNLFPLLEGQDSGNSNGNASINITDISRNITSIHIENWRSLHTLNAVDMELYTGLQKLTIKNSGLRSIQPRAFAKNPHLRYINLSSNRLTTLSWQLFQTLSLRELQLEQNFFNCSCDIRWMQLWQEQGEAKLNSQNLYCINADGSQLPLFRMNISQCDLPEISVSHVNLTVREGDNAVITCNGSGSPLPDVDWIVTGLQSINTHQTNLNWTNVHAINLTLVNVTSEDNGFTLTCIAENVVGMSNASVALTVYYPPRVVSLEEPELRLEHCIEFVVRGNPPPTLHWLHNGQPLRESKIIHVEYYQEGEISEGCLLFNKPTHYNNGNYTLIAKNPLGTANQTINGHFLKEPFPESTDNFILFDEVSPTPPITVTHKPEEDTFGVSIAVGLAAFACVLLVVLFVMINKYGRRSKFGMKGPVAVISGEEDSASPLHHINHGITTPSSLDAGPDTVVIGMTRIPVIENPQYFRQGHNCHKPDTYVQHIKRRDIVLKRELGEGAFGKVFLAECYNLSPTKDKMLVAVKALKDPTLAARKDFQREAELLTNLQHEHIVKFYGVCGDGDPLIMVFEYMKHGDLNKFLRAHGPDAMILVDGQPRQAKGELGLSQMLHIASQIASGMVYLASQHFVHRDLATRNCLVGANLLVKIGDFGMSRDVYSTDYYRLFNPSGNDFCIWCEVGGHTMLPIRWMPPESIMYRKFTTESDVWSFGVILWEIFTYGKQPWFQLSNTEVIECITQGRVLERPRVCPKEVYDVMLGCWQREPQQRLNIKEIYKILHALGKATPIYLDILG
Sequence of Tyrosine-protein kinase Fer (Homo sapiens) (P16591 whole entry, looked up): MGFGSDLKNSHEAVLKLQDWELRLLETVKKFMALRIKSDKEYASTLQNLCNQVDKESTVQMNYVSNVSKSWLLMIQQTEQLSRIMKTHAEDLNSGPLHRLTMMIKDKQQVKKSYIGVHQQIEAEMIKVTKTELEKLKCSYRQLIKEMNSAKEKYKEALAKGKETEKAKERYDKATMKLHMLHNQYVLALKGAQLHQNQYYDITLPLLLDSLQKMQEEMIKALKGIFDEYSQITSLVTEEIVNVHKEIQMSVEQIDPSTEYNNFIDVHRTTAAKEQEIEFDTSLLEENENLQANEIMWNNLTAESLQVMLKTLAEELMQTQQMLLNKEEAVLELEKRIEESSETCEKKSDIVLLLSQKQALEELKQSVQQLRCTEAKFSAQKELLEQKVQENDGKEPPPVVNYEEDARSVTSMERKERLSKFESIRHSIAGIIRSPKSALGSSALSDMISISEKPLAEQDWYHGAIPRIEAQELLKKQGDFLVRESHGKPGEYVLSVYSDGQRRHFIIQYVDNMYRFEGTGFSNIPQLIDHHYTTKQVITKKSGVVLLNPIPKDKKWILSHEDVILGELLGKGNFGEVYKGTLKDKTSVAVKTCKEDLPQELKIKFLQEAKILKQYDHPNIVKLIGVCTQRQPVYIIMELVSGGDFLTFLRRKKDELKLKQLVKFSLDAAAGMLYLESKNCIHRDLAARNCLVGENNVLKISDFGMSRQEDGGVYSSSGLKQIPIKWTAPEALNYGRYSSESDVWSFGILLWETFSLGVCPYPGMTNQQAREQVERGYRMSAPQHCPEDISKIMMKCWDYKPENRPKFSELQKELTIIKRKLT
Sequence of Calcium/calmodulin-dependent protein kinase kinase 2 (Homo sapiens) (Q96RR4 2-588 limits assumed): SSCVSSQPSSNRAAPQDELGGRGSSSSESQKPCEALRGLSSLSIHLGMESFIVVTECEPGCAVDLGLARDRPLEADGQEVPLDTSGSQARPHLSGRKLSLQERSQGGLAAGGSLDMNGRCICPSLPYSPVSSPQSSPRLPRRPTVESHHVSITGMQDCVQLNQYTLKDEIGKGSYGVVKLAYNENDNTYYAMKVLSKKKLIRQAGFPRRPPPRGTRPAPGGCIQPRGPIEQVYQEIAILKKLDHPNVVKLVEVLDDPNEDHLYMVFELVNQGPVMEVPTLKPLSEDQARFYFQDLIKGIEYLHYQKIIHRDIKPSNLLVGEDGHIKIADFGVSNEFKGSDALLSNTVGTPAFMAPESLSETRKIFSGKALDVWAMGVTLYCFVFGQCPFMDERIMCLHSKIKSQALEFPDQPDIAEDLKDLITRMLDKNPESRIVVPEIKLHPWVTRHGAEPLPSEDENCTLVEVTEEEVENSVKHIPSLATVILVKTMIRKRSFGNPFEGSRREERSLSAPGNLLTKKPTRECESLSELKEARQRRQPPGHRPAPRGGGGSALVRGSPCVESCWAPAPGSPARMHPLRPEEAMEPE
Sequence of Ribosomal protein S6 kinase alpha-2 (Homo sapiens) (Q15349 whole entry): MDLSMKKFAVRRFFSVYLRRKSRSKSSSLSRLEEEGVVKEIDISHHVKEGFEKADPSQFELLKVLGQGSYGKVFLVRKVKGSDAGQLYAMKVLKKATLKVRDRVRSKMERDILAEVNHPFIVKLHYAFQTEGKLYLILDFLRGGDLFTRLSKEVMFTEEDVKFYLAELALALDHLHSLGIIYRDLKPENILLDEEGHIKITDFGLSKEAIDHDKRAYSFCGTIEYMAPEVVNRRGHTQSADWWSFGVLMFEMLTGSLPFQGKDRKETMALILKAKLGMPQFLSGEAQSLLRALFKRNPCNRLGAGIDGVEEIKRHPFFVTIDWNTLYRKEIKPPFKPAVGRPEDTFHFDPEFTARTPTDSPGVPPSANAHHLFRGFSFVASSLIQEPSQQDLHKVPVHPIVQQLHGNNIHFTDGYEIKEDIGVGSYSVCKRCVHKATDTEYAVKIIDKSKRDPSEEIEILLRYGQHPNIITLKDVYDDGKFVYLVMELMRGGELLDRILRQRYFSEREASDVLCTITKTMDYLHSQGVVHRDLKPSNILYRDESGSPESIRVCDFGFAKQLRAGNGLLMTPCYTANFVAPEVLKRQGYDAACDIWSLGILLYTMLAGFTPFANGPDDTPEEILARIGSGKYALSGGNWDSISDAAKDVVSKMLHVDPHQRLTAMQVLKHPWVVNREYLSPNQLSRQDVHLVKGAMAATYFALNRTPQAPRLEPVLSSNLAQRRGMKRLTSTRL
Sequence of Mitogen-activated protein kinase 8 (P45983 whole entry): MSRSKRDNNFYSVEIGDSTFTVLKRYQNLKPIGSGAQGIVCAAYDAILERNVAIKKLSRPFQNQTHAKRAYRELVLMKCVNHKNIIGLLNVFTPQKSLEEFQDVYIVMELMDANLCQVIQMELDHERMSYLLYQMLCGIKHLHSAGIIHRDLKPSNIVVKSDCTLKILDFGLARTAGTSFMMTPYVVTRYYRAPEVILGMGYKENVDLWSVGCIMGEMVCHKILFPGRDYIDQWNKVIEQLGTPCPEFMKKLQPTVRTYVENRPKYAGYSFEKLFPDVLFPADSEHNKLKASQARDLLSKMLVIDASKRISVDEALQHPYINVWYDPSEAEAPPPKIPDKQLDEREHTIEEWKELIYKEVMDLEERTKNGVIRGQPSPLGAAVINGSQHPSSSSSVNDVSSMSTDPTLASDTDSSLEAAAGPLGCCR

- % of control [1]: 100%
SMILES: CCN(CC)CCCCNc1ncc2cc(-c3cc(OC)cc(OC)c3)c(NC(=O)NC(C)(C)C)nc2n1

- % of inhibition [2]: -3%
SMILES: CN1Cc2nccc(-c3cn(C)nc3-c3ccc(F)cc3)c2C1=O

SMILES: CN(C)CCOc1ccc(-c2nc(-c3ccncc3)c(-c3ccc4c(c3)CC/C4=N\O)[nH]2)cc1
- % of control [3]: 94%

SMILES: C=CC(=O)Nc1cc(-n2c(=O)ccc3cnc4ccc(-c5ccc(NS(C)(=O)=O)cc5)cc4c32)ccc1C
- % of control ([4]; at 1 µM): 100%
- % of control ([4]; at 10 µM): 100%

SMILES: COCC(=O)NC/C=C/c1ccc2ncnc(Nc3ccc(Oc4ccc(C)nc4)c(C)c3)c2c1 [CP-724714]
- % of control [5]: 66%
- % of control [6]: 100%

SMILES: C=CC(=O)Nc1ccc(C(=O)Nc2[nH]nc3c2CN(C(=O)N[C@H](CN(C)C)c2ccccc2)C3(C)C)cc1
- % of engagement [7]: -8.6%

- % of inhibition [8]: -4.2%
- % of inhibition [9]: 9.46%
- % of inhibition [10]: 3.37%
SMILES: CC[C@@H]1[C@H](F)C(=O)N[C@@H]1COc1nccc2cc(C(N)=O)c(OC)cc12 [ZIMLOVISERTIB]

SMILES: COc1cc(N(C)c2ccnc3ccc(C(F)(F)F)cc23)cc(OC)c1OC
- % binding [11]: 65%

SMILES: O=C(NOC[C@H](O)CO)c1ccc(F)c(F)c1Nc1ccc(I)cc1F
- % of control [12]: 100%
